Reference: PMC11078990, “Identification and characterization of small molecule inhibitors of the LINE-1 retrotransposon endonuclease” (Nature Communications, 2024)
Where “and” joins values, the source holds several entries; their conditions need not be identical. Identical values can stand only once. Entries after “also recorded” stand apart in the source; their conditions may differ. Like-named read-outs stand apart in the source and are kept apart here.

Experiments:
EN = EN (Homo sapiens, UniProt O00370, N5T); assay type: biochemical
Chain of EN (O00370 1-239 N5T): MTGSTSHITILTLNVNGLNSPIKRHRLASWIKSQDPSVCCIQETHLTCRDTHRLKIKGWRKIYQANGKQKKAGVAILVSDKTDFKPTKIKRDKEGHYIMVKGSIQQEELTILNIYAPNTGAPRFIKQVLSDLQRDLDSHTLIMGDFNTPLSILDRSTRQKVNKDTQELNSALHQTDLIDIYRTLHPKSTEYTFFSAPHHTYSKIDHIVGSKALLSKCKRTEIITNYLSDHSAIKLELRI

L1 retrotransposition = assay: HeLa dual-luciferase L1 retrotransposition assay; assay type: cell-based, human; settings: for L1 retrotransposition, average: average of 4 replicates, Figure 4b; for Luciferase (retrotransposition), replicates: Replicates 1-4
APE1 [1] = target: T1, APE1 (Homo sapiens, UniProt P27695); assay: APE1 fluorescent oligonucleotide activity assay (abasic site substrate); assay type: biochemical; settings: for activity at 25 µM: inhibitors at 25 μM, relative to 0 μM inhibitor control, mean ± s.d., 3 independent experiments, read-out: APE1 activity (%)
T1 construct: purchased New England Biolabs (NEB) M0282S

[2] = target: L1 EN (LINE-1 retrotransposon endonuclease domain) (Homo sapiens, UniProt O00370, N5T); assay: Fluorescent oligonucleotide EN nicking activity assay; assay type: biochemical
Chain of L1 EN (LINE-1 retrotransposon endonuclease domain) (O00370 1-239 N5T): as above

[3] = system: substrate oligonucleotide used in the EN activity assay; assay type: binding; design: key to Binding Detected? (Y/N): Binding Detected? (Y/N); Binding Detected? (Y/N)
APE1 [4] = target: T1, APE1; settings: read-out: Ki for APE1; cited from earlier work
[5] = system: senescent LF1 human diploid fibroblasts (IL6, IL1β, CCL2, IFNα, MMP3); assay: RT-qPCR of inflammatory markers in replicatively senescent fibroblasts; assay type: cell-based
[6] = system: L1-induced DNA damage in HeLa Tet-On cells (full-length L1); assay: γ-H2AX immunofluorescence assay, full-length L1 constructs; assay type: cell-based, human
[7] = system: senescent LF1 human diploid fibroblasts (IFN-I and Aging gene sets); assay: RNA-seq / Gene Set Enrichment Analysis of senescent cultures; assay type: cell-based; settings: senescent cultures treated 1 month beginning at 3 months senescence
HeLa Tet-On cells = settings: human, 48 h
[8] = system: DNA fragmentation (comet tail length) in HeLa Tet-On cells expressing EN domain; assay: Neutral comet assay, EN domain-only constructs; assay type: cell-based, human; settings: EN domain-only construct, neutral comet assay, normalised to WT
[9] = system: L1-induced DNA damage in HeLa Tet-On cells (EN domain only); assay: γ-H2AX immunofluorescence assay, EN domain-only constructs; assay type: cell-based, human
[10] = Figure 4a Graph 3, 50μM, 0μM average 17.91
[11] = compound at 25 μM, average of 3 replicates
[12] = [Inhibitor] 5 μM, technical replicates 1-3, Fig. 2b source data, 5 µM
[13] = [Inhibitor] 5 μM, technical replicates 1-3, Fig. 2b source data, read-out: EN activity, percent of no inhibitor control
[14] = [Inhibitor] 25 μM, technical replicates 1-3, Fig. 2b source data, 25 µM
[15] = [Inhibitor] 25 μM, technical replicates 1-3, Fig. 2b source data, read-out: EN activity, percent of no inhibitor control
[16] = [Inhibitor] 50 μM, technical replicates 1-3, Fig. 2b source data, 50 µM
[17] = [Inhibitor] 100 μM, technical replicates 1-3, Fig. 2b source data, 100 µM
[18] = Figure 4a Graph 1, 25 μM, 0 μM average 9.554

Structure (SMILES): O=C(O)[C@H](CCCCNc1ccc([N+](=O)[O-])cc1[N+](=O)[O-])Nc1ccc([N+](=O)[O-])cc1[N+](=O)[O-] [AD2]
- Inhibition of EN activity in plasmid nicking assay (EN): full inhibition
- Effect on L1 retrotransposition (L1 retrotransposition): did not significantly impact retrotransposition
- APE1 activity (%) (APE1 [1]): 96.2 ± 3.4%
- APE1 percent activity, Replicate 1 (APE1 [1]): 98.5607%
- APE1 percent activity, Replicate 2 (APE1 [1]): 92.3765%
- APE1 percent activity, Replicate 3 (APE1 [1]): 97.7464%
- APE1 percent activity, average (APE1 [1]): 96.2279%
- Effect on APE1 activity (APE1 [1]): inhibited; also recorded: inhibition by the weak APE1 inhibitor AD2 was detected
- Percent APE1 activity, average (APE1 [1]): 66.36%
- Percent APE1 activity, replicates (APE1 [1]): 67.8305% and 52.9447% and 78.2943%
- EN activity, percent of no inhibitor control ([2]; 2 µM): 97.2065% and 90.9835% and 64.2149%
- EN activity, percent of no inhibitor control ([2]; 10 µM): 80.6222% and 62.0824% and 77.8942%
- EN activity, percent of no inhibitor control ([2]; 25 µM): 84.9255% and 87.5391% and 75.5295%
- EN activity, percent of no inhibitor control ([2]; 50 µM): 66.9257% and 62.5652% and 70.9549%
- EN activity, percent of no inhibitor control ([2]; 100 µM): 54.3551% and 40.6401% and 45.1735%
- EN activity, percent of no inhibitor control ([2]; 500 µM): 2.482% and 2.582%
- EN activity, percent of no inhibitor control ([2]; 1000 µM): -0.01768% and 1.001% and 0.6109%
- EN activity, percent of no inhibitor control ([2]; 2000 µM): -4.007% and -5.494% and -4.957%
- Binding Detected? (Y/N) [3]: N
- Ki (APE1 [4]): 13 µM

Structure (SMILES): COc1ccc2c(c1)C(=O)N(CCc1ccc(S(=O)(=O)NC(=O)NC3CCCCC3)cc1)C(=O)C2(C)C [AD12]
- MMP3 RT-qPCR, average (EP = 1) ([5]; 50 μM, senescent cells, SEN control 5.499, 3 replicates): 3.608
- IL1β RT-qPCR, average (EP = 1) ([5]; 50 μM, senescent cells, SEN control 8.256, 3 replicates): 8.197
- CCL2 RT-qPCR, average (EP = 1) ([5]; 50 μM, senescent cells, SEN control 8.589, 3 replicates): 4.591
- IFNα RT-qPCR, average (EP = 1) ([5]; 50 μM, senescent cells, SEN control 18.65, 3 replicates): 8.607
- IL6 RT-qPCR, average (EP = 1) ([5]; 50 μM, senescent cells, SEN control 22.45, 3 replicates): 8.334
- Inhibition of inflammation in senescent cells ([5]; treated 1 month): showed efficacy
- L1 retrotransposition, average (L1 retrotransposition; 1 μM inhibitor): 17.6477
- L1 retrotransposition, average (L1 retrotransposition; 5 μM inhibitor): 10.1662
- L1 retrotransposition, average (L1 retrotransposition; 10 μM inhibitor): 4.75
- L1 retrotransposition, average (L1 retrotransposition; 25 μM inhibitor): 4.785
- L1 retrotransposition, average (L1 retrotransposition; 50 μM inhibitor): 3.467
- L1 retrotransposition, average (L1 retrotransposition; 100 μM inhibitor): 2.555
- Luciferase (retrotransposition), average (L1 retrotransposition; [10]): 3.467
- Luciferase (retrotransposition), replicates (L1 retrotransposition; [10]): 3.679 and 3.508 and 3.347 and 3.332
- Effect on L1 retrotransposition (L1 retrotransposition; HeLa cells): some activity in the retrotransposition assay
- Inhibition of DNA damage, full-length L1 experiments [6]: best inhibition
- Expression of IFN-I gene set and aging gene set (RNA-seq, GSEA) [7]: decreased expression
- Percent APE1 activity, average (APE1 [1]; 250 µM, Supplementary Fig. 6b, n=3): 114.2%
- Percent APE1 activity, replicates (APE1 [1]; 250 µM, Supplementary Fig. 6b, replicates 1-3): 123.394% and 115.312% and 103.88%
- APE1 percent activity, Replicate 1 (APE1 [1]; compound at 25 μM, Replicate 1): 105.329%
- APE1 percent activity, Replicate 2 (APE1 [1]; compound at 25 μM, Replicate 2): 115.007%
- APE1 percent activity, Replicate 3 (APE1 [1]; compound at 25 μM, Replicate 3): 106.871%
- APE1 percent activity, average (APE1 [1]; [11]): 109.069%
- activity at 25 µM (APE1 [1]): 109 ± 5.2%
- PrestoBlue (viability), average (HeLa Tet-On cells; 50 μM): 5.992
- Nuclei comet tail length, average (WT = 1) ([8]; 50 μM inhibitor): 0.8544
- EN activity, percent of no inhibitor control [2, 12]: 77.035% and 74.8653%
- remaining activity at 5 µM [2, 13]: 78.7%
- EN activity, percent of no inhibitor control [2, 14]: 81.0185% and 81.0517%
- remaining activity at 25 µM [2, 15]: 80.7%
- EN activity, percent of no inhibitor control [2, 16]: 93.0387% and 96.7449% and 76.3025%
- EN activity, percent of no inhibitor control [2, 17]: 74.7453% and 98.1517% and 74.2286%
- EN activity, percent of no inhibitor control ([2]; [Inhibitor] 250 μM, technical replicates 1-3, Fig. 2b source data, 250 µM): 79.2639% and 68.0005%
- remaining activity at 250 µM ([2]; [Inhibitor] 250 μM, technical replicates 1-3, Fig. 2b source data, read-out: EN activity, percent of no inhibitor control): 61.9%
- EN activity, percent of no inhibitor control ([2]; [Inhibitor] 500 μM, technical replicates 1-3, Fig. 2b source data, 500 µM): 55.3249% and 49.2356%
- remaining activity at 500 µM ([2]; [Inhibitor] 500 μM, technical replicates 1-3, Fig. 2b source data, read-out: EN activity, percent of no inhibitor control): 62.1%
- EN activity, percent of no inhibitor control ([2]; [Inhibitor] 750 μM, technical replicates 1-3, Fig. 2b source data, 750 µM): 29.8392% and 18.9487%
- remaining activity at 750 µM ([2]; [Inhibitor] 750 μM, technical replicates 1-3, Fig. 2b source data, read-out: EN activity, percent of no inhibitor control): 18%
- EN activity, percent of no inhibitor control ([2]; [Inhibitor] 1000 μM, technical replicates 1-3, Fig. 2b source data, 1000 µM): 13.0331% and 19.9958%
- remaining activity at 1000 µM ([2]; [Inhibitor] 1000 μM, technical replicates 1-3, Fig. 2b source data, read-out: EN activity, percent of no inhibitor control): 20.4%
- EN activity, percent of no inhibitor control ([2]; [Inhibitor] 1500 μM, technical replicates 1-3, Fig. 2b source data, 1500 µM): 5.3699% and 4.215%
- remaining activity at 1500 µM ([2]; [Inhibitor] 1500 μM, technical replicates 1-3, Fig. 2b source data, read-out: EN activity, percent of no inhibitor control): 4.91%
- Binding Detected? (Y/N) [3]: N

Structure (SMILES): Nn1cnn2c(SCC(=O)Cc3ccc(-c4nc5cc(NC(=O)CSc6nnc7n(N)cnn67)ccc5o4)cc3)nnc12 [AD16]
- L1 retrotransposition, average (L1 retrotransposition; 0.5 μM inhibitor): 6.997
- L1 retrotransposition, average (L1 retrotransposition; 1 μM inhibitor): 6.79
- L1 retrotransposition, average (L1 retrotransposition; 5 μM inhibitor): 6.3671
- L1 retrotransposition, average (L1 retrotransposition; 10 μM inhibitor): 6.224
- L1 retrotransposition, average (L1 retrotransposition; 25 μM inhibitor): 5.375
- L1 retrotransposition, average (L1 retrotransposition; 50 μM inhibitor): 4.14
- Luciferase (retrotransposition), average (L1 retrotransposition; [18]): 3.568
- Luciferase (retrotransposition), replicates (L1 retrotransposition; [18]): 3.791 and 3.903 and 3.817 and 2.762
- APE1 percent activity, Replicate 1 (APE1 [1]; compound at 25 μM, Replicate 1): 93.7909%
- APE1 percent activity, Replicate 2 (APE1 [1]; compound at 25 μM, Replicate 2): 100.33%
- APE1 percent activity, Replicate 3 (APE1 [1]; compound at 25 μM, Replicate 3): 92.4773%
- APE1 percent activity, average (APE1 [1]; [11]): 95.5327%
- activity at 25 µM (APE1 [1]): 95.5 ± 4.2%
- Inhibition of DNA damage, EN domain-only experiments [9]: better efficacy
- PrestoBlue (viability), average (HeLa Tet-On cells; 25 μM): 13.01
- Nuclei comet tail length, average (WT = 1) ([8]; 25 μM inhibitor): 0.5888
- EN activity, percent of no inhibitor control ([2]; [Inhibitor] 0.2 μM, technical replicates 1-3, Fig. 2b source data, 0.2 µM): 82.0267% and 71.1107% and 113.489%
- EN activity, percent of no inhibitor control ([2]; [Inhibitor] 1 μM, technical replicates 1-3, Fig. 2b source data, 1 µM): 95.0279% and 119.352% and 94.1929%
- EN activity, percent of no inhibitor control [2, 12]: 53.9202% and 53.7999%
- remaining activity at 5 µM [2, 13]: 52.1%
- EN activity, percent of no inhibitor control ([2]; [Inhibitor] 10 μM, technical replicates 1-3, Fig. 2b source data, 10 µM): 8.722% and 8.848%
- remaining activity at 10 µM ([2]; [Inhibitor] 10 μM, technical replicates 1-3, Fig. 2b source data, read-out: EN activity, percent of no inhibitor control): 9.85%
- EN activity, percent of no inhibitor control [2, 14]: 4.539% and 2.3611%
- remaining activity at 25 µM [2, 15]: 3.82%
- EN activity, percent of no inhibitor control [2, 16]: 5.5014% and 3.599%
- remaining activity at 50 µM ([2]; [Inhibitor] 50 μM, technical replicates 1-3, Fig. 2b source data, read-out: EN activity, percent of no inhibitor control): 5.19%
- EN activity, percent of no inhibitor control [2, 17]: 3.629% and 2.352%
- remaining activity at 100 µM ([2]; [Inhibitor] 100 μM, technical replicates 1-3, Fig. 2b source data, read-out: EN activity, percent of no inhibitor control): 2.31%
- Binding Detected? (Y/N) [3]: Y
- Binding to the oligonucleotide substrate [3]: detectable binding
